# According to PubChem BioAssay AID788 (SRMLSC, 2007):
# The source made the active and inactive calls. The rule behind the calls is not given here.
# Experiments:
# [1] = test system: S. cerevisiae wild-type background strain growth inhibition; assay: vps1Δ apl2Δ double mutant yeast growth inhibitors – S. cerevisiae, background strain comparison, post-Golgi transport modulator project, dose response (AID 788); conditions: S. cerevisiae vps1Δ apl2Δ growth inhibition, dose response; measured here: wild-type background strain growth
# [2] = test system: S. cerevisiae vps1Δ apl2Δ growth inhibition, dose response; assay: as above
Compound,IC50 [1] [µM],IC50 [2]
COc1ccc2nc(NCCCNC(=O)c3cc(OC)c(OC)c(OC)c3)c(C#N)cc2c1,> 10,> 10 µM (inactive)
NC(=O)c1c(NC(=O)CN2C(=O)CCC2=O)sc2c1CCCCC2,> 10,> 10 µM (inactive)
CCOC(=O)Cc1c(C)c2ccc(N(CC)CC)cc2oc1=O,> 10,> 10 µM (inactive)
Cc1cc(=O)oc2c(CN3CCCCC3)c(O)c(Cl)cc12,> 10,> 10 µM (inactive)
OC(Cn1ccnc1)c1ccc(Cl)cc1Cl (stereo unspecified),> 10,> 10 µM (inactive)
CCN(CC)C(=O)C1CCN(Cc2ccc(Br)cc2)CC1,> 10,> 10 µM (inactive)
Cc1cccc2cc(C#N)c(NCCCn3ccnc3)nc12,> 10,> 10 µM (inactive)
CCn1c(=O)[nH]c2cc(C(=O)N3CCN(c4ccccc4)CC3)ccc2c1=O,> 10,> 10 µM (inactive)
CCC(C)(C)NC(=O)CN(C(=O)CCC(=O)Nc1ccccn1)c1ccc(F)c(Cl)c1,> 10,> 10 µM (inactive)
O=C(c1ccco1)N1CCN(c2ncnc3c2[nH]c2ccccc23)CC1,> 10,> 10 µM (inactive)
Cc1cc(OCC(F)(F)C(F)(F)C(F)(F)C(F)(F)C(F)(F)C(F)F)nc(N)n1,> 10,> 10 µM (inactive)
Cc1nn(-c2ccccn2)c(C)c1Oc1ccccc1O,> 10,> 10 µM (inactive)
O=C(NCc1ccc2c(c1)OCO2)c1ccc(-n2cnnn2)cc1,> 10,> 10 µM (inactive)
CCCc1cc(NCCCCO)n2c(nc3ccccc32)c1C#N,> 10,> 10 µM (inactive)
CCOC(=O)c1c(-n2c(C)cc(C=C3C(=O)NC(=S)NC3=O)c2C)sc2c1CCCC2,11.5,> 10 µM (inactive)
CC(C)c1ccc(C2C3CSCC=C3C(C#N)=C(N)C2(C#N)C#N)cc1 (stereo unspecified),0.843,2.08 µM (inactive)
Cc1cc(C)nc(NC(=O)CSc2nn(C)c(=S)s2)n1,> 10,> 10 µM (inactive)

Compound,IC50 [1] [µM],IC50 [2]
O=C(NCc1ccccc1)NS(=O)(=O)c1ccccc1Cl,> 10,> 10 µM (inactive)
O=C1OCC2=C1C(c1ccc(F)cc1)Sc1ccccc1N2 (stereo unspecified),> 10,23.9 µM
O=C(Nc1nc(-c2ccccn2)cs1)c1ncc(Cl)c(Cl)c1Cl,13.3,4.41 µM
CCN1CCN(c2c(Cl)cccc2NC(=O)c2ccc(Br)o2)CC1,> 10,> 10 µM (inactive)
O=C(Nc1nnc(C2CC2)o1)c1ccc(S(=O)(=O)N2CCCc3ccccc32)cc1,3.17,> 10 µM (inactive)
Cc1ccc(CN2CCN(/N=C/c3cc(Br)ccc3O)CC2)cc1,> 10,4.32 µM
C/C(=N\N=C(/N)SC1CC(=O)N(c2ccc(Cl)c(Cl)c2)C1=O)c1cccs1 (stereo unspecified),5.98,5.05 µM
CCOC(=O)Cn1cc(C=O)c2ccccc21,> 10,> 10 µM (inactive)
Cc1cc(O)c(/C=N/Nc2ccc(Cl)cc2)c(=O)o1,4.69,3.33 µM
O=[N+]([O-])c1ccc(N2CCN(S(=O)(=O)c3ccc(Cl)cc3)CC2)cc1NCc1cccnc1,> 10,> 10 µM (inactive)
O=C(O)Cn1c(SCCOc2ccccc2F)nc2ccccc21,> 10,> 10 µM (inactive)
O=C(OCn1ncc(Cl)c(Cl)c1=O)c1ccc(C(F)(F)F)cc1,> 10,23.2 µM
O=Cc1cc2ccccc2nc1SCc1ccc(Cl)cc1,> 10,> 10 µM (inactive)
COc1ccc(C2=NC(C(F)(F)F)(C(F)(F)F)c3c(n(C)c(=O)n(C)c3=O)N2)cc1,> 10,> 10 µM (inactive)
Nc1ccc(Oc2ccc3nc(-c4ccccc4)c(-c4ccccc4)nc3c2)cc1,1.21,1.2 µM (inactive)
O=C(CC(=O)c1cc(Cl)ccc1O)c1ccccc1,12.7,9.8 µM
